Like-named read-outs stand apart in the source and are kept apart here.
Experiments:
[1] = MTT assay in BJ1 cells; assay type: cell-based; conditions: human, hTERT-BJ1-PTERT(3.4)-SEAP cells, BJ1, read-out: MTT (Inhibition μM ± SD); for viability at 48 h, 1 µM: compound concentration 1 μM; for viability at 48 h, 10 µM: compound concentration 10 μM; for viability at 48 h, 100 µM: compound concentration 100 μM
Experimental: A total of 2×10^3 […] cells were seeded in the 96-well cell culture plate, and incubated with DMEM (GIBCO®)/glucose mixture and Medium 199 (GIBCO®)/10% FBS/1 mM sodium pyruvate (GIBCO®)/4 mM L-glutamine (GIBCO®) mixture at a ratio of 4:1 at 37° C. for 24 hours. […] After 48 hours of drug treatment, the cultured medium were collected for performing the analysis of SEAP activity. The cells were washed with 1×PBS once immediately, and the MTT assay was performed to compare the compounds with the relative toxicity or the influence to the proliferation and activity. Mitochondria is the place for cellular respiration, and there are many reductive reactions catalyzed by dehydrogenases. MTT is a water-soluble yellow compound, and the […] will be formed after reduction. This crystal can be dissolved in the organic solvent, and has high absorbance at the wavelength of 570 nm. The higher cellular activity or more cell numbers, the more generated crystal violets. Therefore, the cellular activity and cell number can be obtained by the MTT assay. MTT solution was prepared by dissolving MTT powder in PBS solution to achieve 5 mg/ml, filtrated and stored at 4° C. Lysis buffer contained 20% (w/v) of SDS in 50% of N,N-dimethylformamide (DMF, Riedel-deHaën). After the cells were incubated in the 96-well culture plate, the original medium was discarded, 100 μl of the fresh serum-free medium per well and 25 μl of MTT solution per well were added in respectively, and the cells were further incubated in the CO2 incubator at 37° C. for 4 hours. Then, 100 μl of lysis buffer per well was added in and incubated overnight in the CO2 incubator at 37° C. The absorbance at 570 nm was determined by the ELISA reader.

[2] = tested on: telomerase; assay: Telomeric repeat amplification protocol (TRAP); assay type: biochemical; conditions: compounds at 100, 10 and 1 μM; gel electrophoresis
[3] = tested on: hTERT expression; assay: SEAP assay in hTERT-BJ1-PTERT(3.4)-SEAP cells; assay type: cell-based; conditions: Homo sapiens, read-out: SEAP (Inhibition μM ± SD)
Experimental: A total of 2×10^3 hTERT-BJ1-PTERT(3.4)-SEAP cells were seeded in the 96-well cell culture plate, and incubated with DMEM (GIBCO®)/glucose mixture and Medium 199 (GIBCO®)/10% FBS/1 mM sodium pyruvate (GIBCO®)/4 mM L-glutamine (GIBCO®) mixture at a ratio of 4:1 at 37° C. for 24 hours. When the cells were attached in the bottom of the well, the seriously-diluted compounds with different concentrations ([…]) were treated with the cells for 48 hours, and the PTERT(3.4)-SEAP cells without drug treatment were being the control. After 48 hours of drug treatment, the cultured medium were collected for performing the analysis of SEAP activity. The cells were washed with 1×PBS once immediately, and the MTT assay was performed to compare the compounds with the relative toxicity or the influence to the proliferation and activity.
The cellular medium after the cellular incubation was transferred into the eppondorf tube, and the activity of endogeneous alkaline phosphatase was inactivated at 65° C. for 10 minutes. After centrification, the mixture was obtained by mixing 50 μl of the supernatant with the equal volume of the SEAP buffer. The mixture and the substrate (120 mM of p-nitrophenylphosphate) were preheated at 37° C. for 10 minutes respectively, and the mixture and the substrate were mixed at a ratio of 1:10 and reacted at 37° C. The absorbance of visible light at 405 nm was determined at the appropriate time intervals, and the enzymatic activity of SEAP was represented by the speed of the increasing absorbance at 405 nm.

[4] = BJ1, compound concentration 1 μM
[5] = BJ1, compound concentration 10 μM
[6] = BJ1, compound concentration 100 μM

| Structure (SMILES) | viability at 48 h, 1 µM [1] [%] | viability at 48 h, 10 µM [1] [%] | viability at 48 h, 100 µM [1] [%] | telomerase inhibition effect in TRAP assay [2] | melting point [°C] | activity at 1 µM [3] [%] | activity at 10 µM [3] [%] | activity at 100 µM [3] [%] | activity at 1 µM [3, 4] [%] | activity at 10 µM [3, 5] [%] | activity at 100 µM [3, 6] [%] |
| --- | --- | --- | --- | --- | --- | --- | --- | --- | --- | --- | --- |
| O=C(CN1CCCC1)Nc1ccc2c(c1)C(=O)c1cc(NC(=O)CN3CCCC3)ccc1C2=O [Compound 6, 2,7-Bis[2-(pyrrolidino)acetamido]anthraquinone] | 99 ± 2 | 60 ± 2 | 39 ± 1 | telomerase inhibition effect | 201 |  |  |  |  |  |  |
| CCNCC(=O)Nc1ccc2c(c1)C(=O)c1cc(NC(=O)CNCC)ccc1C2=O [Compound 10, 2,7-Bis[2-(ethylamino)acetamido]anthraquinone] | 72 ± 2 | 56 ± 2 | 37 ± 1 | telomerase inhibition effect | 145 | 90 ± 5 | 41 ± 4 | 17 ± 21 |  |  |  |
| CN1CCN(CC(=O)Nc2ccc3c(c2)C(=O)c2cc(NC(=O)CN4CCN(C)CC4)ccc2C3=O)CC1 [Compound 11, 2,7-Bis[2-(N-methylpiperazino)acetamido]anthraquinone] | 86 ± 1 | 69 ± 1 | 47 ± 3 |  | 173 |  |  |  | 61 ± 21 | 68 ± 21 | 97 ± 30 |
| CC(C)CNCC(=O)Nc1ccc2c(c1)C(=O)c1cc(NC(=O)CNCC(C)C)ccc1C2=O [Compound 14, 2,7-Bis[2-(isobutylamino)acetamido]anthraquinone] | 107 ± 3 | 37 | 39 |  | 146 |  |  |  | 83 ± 5 | 44 ± 2 | 40 ± 3 |
| CCCCNCCC(=O)Nc1ccc2c(c1)C(=O)c1cc(NC(=O)CCNCCCC)ccc1C2=O [Compound 17, 2,7-Bis[3-(butylamino)propionamido]anthraquinone] | 80 ± 3 | 70 ± 1 | 40 |  | 168 |  |  |  | 88 ± 34 | 95 ± 46 | 111 ± 25 |
| O=C(CCN1CCCCC1)Nc1ccc2c(c1)C(=O)c1cc(NC(=O)CCN3CCCCC3)ccc1C2=O [Compound 19, 2,7-Bis[3-(piperidino)propionamido]anthraquinone] | 92 ± 6 | 54 ± 2 | 41 ± 2 |  | 266 |  |  |  | 186 ± 47 | 226 ± 51 | 234 ± 20 |
| CCNCCC(=O)Nc1ccc2c(c1)C(=O)c1cc(NC(=O)CCNCC)ccc1C2=O [Compound 22, 2,7-Bis[3-(ethylamino)propionamido]anthraquinone] | 82 ± 2 | 73 ± 3 | 42 ± 1 |  | 181 | 211 ± 38 | 217 ± 133 | 97 ± 87 |  |  |  |
| CN1CCN(CCC(=O)Nc2ccc3c(c2)C(=O)c2cc(NC(=O)CCN4CCN(C)CC4)ccc2C3=O)CC1 [Compound 23, 2,7-Bis[3-(N-methylpiperazino)propionamido]anthraquinone] | 95 ± 2 | 80 ± 2 | 61 ± 1 |  | 284 |  |  |  |  | 138 ± 115 | 232 ± 66 |
| O=C(CCN1CCNCC1)Nc1ccc2c(c1)C(=O)c1cc(NC(=O)CCN3CCNCC3)ccc1C2=O [Compound 24, 2,7-Bis[3-(piperazino)propionamido]anthraquinone] | 96 ± 2 | 100 ± 3 | 88 ± 4 |  | 218 |  |  |  | 163 ± 22 | 118 ± 26 | 131 ± 29 |
| O=C(CCCCl)Nc1ccc2c(c1)C(=O)c1cc(NC(=O)CCCCl)ccc1C2=O [Compound 25, 2,7-Bis(4-chlorobutyramido)anthraquinone] | 72 ± 3 | 62 ± 2 | 58 ± 3 |  | 234 |  |  |  | 13 ± 58 | 42 ± 45 | 75 ± 16 |
| CCC(=O)Nc1ccc2c(c1)C(=O)c1cc(NC(=O)CC)ccc1C2=O [Compound 27, 2,7-Bis(propionamido)anthraquinone] | 77 ± 2 | 57 ± 2 | 48 ± 2 |  | 291 |  |  |  | 78 ± 10 | 64 ± 8 | 51 ± 8 |
| CCCC(=O)Nc1ccc2c(c1)C(=O)c1cc(NC(=O)CCC)ccc1C2=O [Compound 28, 2,7-Bis(butyramido)anthraquinone] | 84 ± 2 | 51 ± 8 | 50 ± 6 | telomerase inhibition effect | 275 |  |  |  |  |  |  |
| O=C(Cc1ccccc1)Nc1ccc2c(c1)C(=O)c1cc(NC(=O)Cc3ccccc3)ccc1C2=O [Compound 30, 2,7-Bis(phenylacetamido)anthraquinone] | 93 ± 2 | 80 ± 3 | 86 ± 4 |  | 224 |  |  |  | 85 ± 8 | 79 ± 6 | 40 ± 15 |
| O=C(CCc1ccccc1)Nc1ccc2c(c1)C(=O)c1cc(NC(=O)CCc3ccccc3)ccc1C2=O [Compound 31, 2,7-Bis(phenylpropionamido)anthraquinone] | 89 ± 2 | 44 | 44 ± 1 |  | 268 |  |  |  | 74 ± 29 | 92 ± 45 | 43 ± 75 |
| O=C1c2ccc(NC(=O)C3CCCCC3)cc2C(=O)c2cc(NC(=O)C3CCCCC3)ccc21 [Compound 34, 2,7-Bis(cyclohexanecarbonamido)anthraquinone] | 87 ± 2 | 76 ± 3 | 64 ± 2 |  | 269 |  |  |  | 14 ± 67 | 14 ± 53 | 22 ± 7 |

Reference: patent publication US20090253709A1 (NATIONAL DEFENSE MEDICAL CENTER, priority 2008, published 2009)
